These are literature values, as cited in patent US10328076B2, “Pharmaceutical composition comprising a triazole antifungal agent and method for preparation thereof” (PHARMATHEN S.A., priority 2014, dated 2019).

Read-outs that look alike come from different tables or passages of the source.

On to `C[C@@H](c1ncncc1F)[C@](O)(Cn1cncn1)c1ccc(F)cc1F` [Voriconazole, (2R,3S)-2-(2,4-difluorophenyl)-3-(5-fluoropyrimidin-4-yl)-1-(1H-1,2,4-triazol-1-yl)butan-2-ol], for which the Solubility entry (in acetone) is “freely soluble”, the Solubility result (in dichlorometane) is listed as “freely soluble” and the Solubility entry (in water) is listed as “very slightly soluble”.
